Laboratory results: PubChem BioAssay (NCI)
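Where inhibition never reached the appropriate level, the endpoint shown equals the highest concentration tested. Otherwise, values were interpolated linearly from a five-concentration, 48-hour dose response in 96-well plates. Here, GI50 denotes the concentration required for 50% inhibition of growth. TGI denotes the concentration required for complete inhibition of growth.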

Experiments:
Assay in all cases: NCI anticancer screen, dose series, 48 h
HT29 colon = test system: HT29 colon
SF-268 CNS = test system: SF-268 CNS
RXF 393 renal = test system: RXF 393 renal
HL-60(TB) leukemia = test system: HL-60(TB) leukemia
DU-145 prostate = test system: DU-145 prostate
UACC-62 melanoma = test system: UACC-62 melanoma
EKVX NSCLC = test system: EKVX NSCLC
CAKI-1 renal = test system: CAKI-1 renal
T-47D breast = test system: T-47D breast
SW-620 colon = test system: SW-620 colon
SK-MEL-5 melanoma = test system: SK-MEL-5 melanoma
TK-10 renal = test system: TK-10 renal
SN12C renal = test system: SN12C renal
SF-295 CNS = test system: SF-295 CNS
KM12 colon = test system: KM12 colon
UO-31 renal = test system: UO-31 renal
K-562 leukemia = test system: K-562 leukemia
ACHN renal = test system: ACHN renal
OVCAR-4 ovarian = test system: OVCAR-4 ovarian
NCI/ADR-RES ovarian = test system: NCI/ADR-RES ovarian
COLO 205 colon = test system: COLO 205 colon
SNB-19 CNS = test system: SNB-19 CNS
U251 CNS = test system: U251 CNS
MOLT-4 leukemia = test system: MOLT-4 leukemia
786-0 renal = test system: 786-0 renal
MDA-MB-231 breast = test system: MDA-MB-231 breast
OVCAR-5 ovarian = test system: OVCAR-5 ovarian
SR leukemia = test system: SR leukemia
HS 578T breast = test system: HS 578T breast
MCF7 breast = test system: MCF7 breast
HCC-2998 colon = test system: HCC-2998 colon
PC-3 prostate = test system: PC-3 prostate
RPMI-8226 leukemia = test system: RPMI-8226 leukemia
M14 melanoma = test system: M14 melanoma
MALME-3M melanoma = test system: MALME-3M melanoma
BT-549 breast = test system: BT-549 breast
OVCAR-3 ovarian = test system: OVCAR-3 ovarian
SK-MEL-28 melanoma = test system: SK-MEL-28 melanoma
SK-OV-3 ovarian = test system: SK-OV-3 ovarian
HOP-62 NSCLC = test system: HOP-62 NSCLC
MDA-MB-435 = test system: MDA-MB-435
SK-MEL-2 melanoma = test system: SK-MEL-2 melanoma
HCT-116 colon = test system: HCT-116 colon
A498 renal = test system: A498 renal
UACC-257 melanoma = test system: UACC-257 melanoma
SNB-75 CNS = test system: SNB-75 CNS
SF-539 CNS = test system: SF-539 CNS
HOP-92 NSCLC = test system: HOP-92 NSCLC
NCI-H460 lung = test system: NCI-H460 lung
LOX IMVI melanoma = test system: LOX IMVI melanoma
IGROV1 ovarian = test system: IGROV1 ovarian
CCRF-CEM leukemia = test system: CCRF-CEM leukemia
OVCAR-8 ovarian = test system: OVCAR-8 ovarian
HCT-15 colon = test system: HCT-15 colon
NCI-H522 lung = test system: NCI-H522 lung
A549 NSCLC = test system: A549 NSCLC
NCI-H226 lung = test system: NCI-H226 lung

SMILES: COCCNc1ccc2ncc(C#Cc3cncc(C(=O)Nc4ccc(CN5CCN(C)CC5)c(C(F)(F)F)c4)c3)n2n1
- GI50 (HT29 colon): 198 nM
- TGI (HT29 colon): 954 nM
- GI50 (SF-268 CNS): 156 nM
- TGI (SF-268 CNS): 737 nM
- GI50 (RXF 393 renal): 145 nM
- TGI (RXF 393 renal): 432 nM
- GI50 (HL-60(TB) leukemia): 134 nM
- TGI (HL-60(TB) leukemia): 566 nM
- GI50 (DU-145 prostate): 251 nM
- TGI (DU-145 prostate): 1540 nM
- GI50 (UACC-62 melanoma): 284 nM
- TGI (UACC-62 melanoma): 832 nM
- GI50 (EKVX NSCLC): 186 nM
- TGI (EKVX NSCLC): 807 nM
- GI50 (CAKI-1 renal): 113 nM
- TGI (CAKI-1 renal): 327 nM
- GI50 (T-47D breast): 325 nM
- TGI (T-47D breast): 1580 nM
- GI50 (SW-620 colon): 83.1 nM
- TGI (SW-620 colon): 257 nM
- GI50 (SK-MEL-5 melanoma): 575 nM
- TGI (SK-MEL-5 melanoma): 1240 nM
- GI50 (TK-10 renal): 232 nM
- TGI (TK-10 renal): 729 nM
- GI50 (SN12C renal): 88.8 nM
- TGI (SN12C renal): 766 nM
- GI50 (SF-295 CNS): 708 nM
- TGI (SF-295 CNS): 3330 nM
- GI50 (KM12 colon): 5 nM
- TGI (KM12 colon): 1200 nM
- GI50 (UO-31 renal): 777 nM
- TGI (UO-31 renal): 1990 nM
- GI50 (K-562 leukemia): 9.89 nM
- TGI (K-562 leukemia): 540 nM
- GI50 (ACHN renal): 157 nM
- TGI (ACHN renal): 870 nM
- GI50 (OVCAR-4 ovarian): 352 nM
- TGI (OVCAR-4 ovarian): 2030 nM
- GI50 (NCI/ADR-RES ovarian): 1890 nM
- TGI (NCI/ADR-RES ovarian): 50000 nM
- GI50 (COLO 205 colon): 120 nM
- TGI (COLO 205 colon): 294 nM
- GI50 (SNB-19 CNS): 289 nM
- TGI (SNB-19 CNS): 1820 nM
- GI50 (U251 CNS): 265 nM
- TGI (U251 CNS): 984 nM
- GI50 (MOLT-4 leukemia): 51.4 nM
- TGI (MOLT-4 leukemia): 1510 nM
- GI50 (786-0 renal): 236 nM
- TGI (786-0 renal): 939 nM
- GI50 (MDA-MB-231 breast): 82.3 nM
- TGI (MDA-MB-231 breast): 333 nM
- GI50 (OVCAR-5 ovarian): 234 nM
- TGI (OVCAR-5 ovarian): 1400 nM
- GI50 (SR leukemia): 78.3 nM
- TGI (SR leukemia): 760 nM
- GI50 (HS 578T breast): 77.9 nM
- TGI (HS 578T breast): 452 nM
- GI50 (MCF7 breast): 139 nM
- TGI (MCF7 breast): 933 nM
- GI50 (HCC-2998 colon): 315 nM
- TGI (HCC-2998 colon): 1090 nM
- GI50 (PC-3 prostate): 254 nM
- TGI (PC-3 prostate): 2130 nM
- GI50 (RPMI-8226 leukemia): 195 nM
- TGI (RPMI-8226 leukemia): 719 nM
- GI50 (M14 melanoma): 125 nM
- TGI (M14 melanoma): 408 nM
- GI50 (MALME-3M melanoma): 181 nM
- TGI (MALME-3M melanoma): 711 nM
- GI50 (BT-549 breast): 434 nM
- TGI (BT-549 breast): 1210 nM
- GI50 (OVCAR-3 ovarian): 232 nM
- TGI (OVCAR-3 ovarian): 1340 nM
- GI50 (SK-MEL-28 melanoma): 402 nM
- TGI (SK-MEL-28 melanoma): 1300 nM
- GI50 (SK-OV-3 ovarian): 426 nM
- TGI (SK-OV-3 ovarian): 1290 nM
- GI50 (HOP-62 NSCLC): 242 nM
- TGI (HOP-62 NSCLC): 1370 nM
- GI50 (MDA-MB-435): 142 nM
- TGI (MDA-MB-435): 843 nM
- GI50 (SK-MEL-2 melanoma): 97.8 nM
- TGI (SK-MEL-2 melanoma): 273 nM
- GI50 (HCT-116 colon): 80.4 nM
- TGI (HCT-116 colon): 387 nM
- GI50 (A498 renal): 221 nM
- TGI (A498 renal): 474 nM
- GI50 (UACC-257 melanoma): 692 nM
- TGI (UACC-257 melanoma): 2130 nM
- GI50 (SNB-75 CNS): 25.7 nM
- TGI (SNB-75 CNS): 126 nM
- GI50 (SF-539 CNS): 41.4 nM
- TGI (SF-539 CNS): 215 nM
- GI50 (HOP-92 NSCLC): 50.3 nM
- TGI (HOP-92 NSCLC): 229 nM
- GI50 (NCI-H460 lung): 123 nM
- TGI (NCI-H460 lung): 621 nM
- GI50 (LOX IMVI melanoma): 97.3 nM
- TGI (LOX IMVI melanoma): 338 nM
- GI50 (IGROV1 ovarian): 123 nM
- TGI (IGROV1 ovarian): 639 nM
- GI50 (CCRF-CEM leukemia): 24.9 nM
- TGI (CCRF-CEM leukemia): 6680 nM
- GI50 (OVCAR-8 ovarian): 197 nM
- TGI (OVCAR-8 ovarian): 830 nM
- GI50 (HCT-15 colon): 180 nM
- TGI (HCT-15 colon): 715 nM
- GI50 (NCI-H522 lung): 99.8 nM
- TGI (NCI-H522 lung): 315 nM
- GI50 (A549 NSCLC): 208 nM
- TGI (A549 NSCLC): 1120 nM
- GI50 (NCI-H226 lung): 147 nM
- TGI (NCI-H226 lung): 980 nM
